Results taken from patent EP0885006B1, “PHARMACEUTICAL COMPOSITION ENABLING TO INHIBIT CANCER METASTASIS FORMATION CONTAINING N-ACETYL-CYSTEINE AND DOXORUBICIN” (ZAMBON GROUP S.p.A., priority 1996, dated 1997).

System: B16-F10 murine melanoma cells
Assay: Experimental metastasis assay (lung metastases after i.v. injection of cancer cells)
Type: in vivo, female nude (CD-1)BR mice
Details: for reduction in the number of lung metastases with respect to untreated controls: DOX 5 mg/kg i.p. +24 h, NAC 2 g/kg p.o. daily
Procedure: DOX was used in the form of commercial injectable product, containing 10 mg of drug per vial (Adriblastina®, Farmitalia - Carlo Erba, Milano, Italia), to be dissolved in distilled water when injected. In the experiments wherein the oral administration was provided, NAC was used in the form of commercial product containing 200 mg of NAC per dosage (Fluimucil®, Zambon Italia, Vicenza), directly dissolved in the drinking water of mice. In the experiments wherein the parenteral (i.p. or i.v.) administration of NAC was foreseen, a 98% pure laboratory reagent (Sigma Chemical Co., St. Louis, MO, U.S.A.) was used, dissolved in a phosphate buffer (PBS), pH 7.4, and furtherly brought to neutrality with NaOH 0.1 N ("spontaneous" metastasis assays) or in NaCl 0.15 M, taking the solution to pH 7.0 (experimental metastasis assays).
A total of 385 adult mice was used (Charles River, Calco, Como, Italia) of which 196 female nude (CD-1)BR mice, aged 7 weeks, average weight of 25 g and 189 female C57BL/6 mice aged 6-8 weeks, average weight of 20 g, used in the experimental metastasis assays and in those of "spontaneous" metastases respectively. The (CD-1)BR mice were housed in sterile cages with filtering cover, in a number of 3 animals per cage, at a room temperature of 26-28°C, with a relative humidity of 55%, a ventilation accounting for 12-15 air/h renewals and a 12 hours day/night cycle; the C57BL/6 mice were stabulated in a number of 5 animals per cage, at a temperature of 25-27°C, with a relative humidity of 50% and a 12 hours day/night cycle. The (CD-1)BR mice received a special diet sterilized under vacuum (Mucedola S.r.L, Settimo Milanese, Milano, Italia) and sterilized drinking water; the C57BL/6 mice received a standard rodent diet (MIL Topi e Ratti, Morini, S. Polo d'Enza, Reggio Emilia, Italia) and drinking water ad libitum throughout the duration of the experiments. Within the experiments wherein the sacrifice of mice was foreseen at a scheduled time, killing was carried out by means of ethyl ether anaesthesia and subsequent cervical dislocation. The stabulation and all the animal treatments were carried out in accordance with the national and Community guidelines (D.L. 27.01.1992 N. 116; 86/609/EEC Directive).
In this kind of assay cancer cells were injected in the lateral tail vein, in order to avoid the formation of primary tumors and directly provide the spread of metastases in the lungs. B16-F10 murine melanoma cells were used, resuspended in serum-free Eagle's MEM medium, and injected i.v. in a volume of 100 µl (5 x 10^4 cells/mouse). As reported in Table 1, wherein also the number of mice included in each experimental group is indicated, 4 groups were always involved in each experiment, namely a control group (either untreated mice or treated with NaCl 0.15M), a group of mice treated with DOX only, a group of mice treated with NAC only and a group of mice treated with the two combined drugs.
In particular, in experiment #1 DOX was injected in a single dose (5 mg/kg body weight) by i.p. route 24 hours after injection of cancer cells, whereas NAC was administered every day with drinking water, at a calculated dose of 2 g/kg body weight, starting 3 days before injection of cancer cells and continuing throughout the duration of the experiment.
In experiment #2 DOX was injected in a single dose (10 mg/kg body weight) by i.v. route 3 days after injection of cancer cells, whereas NAC was administered daily by i.p. route (1 g/kg body weight), starting 8 hours before injection of cancer cells and continuing for 8 days.
In experiment #3 both DOX and NAC were injected by i.v. route 24 hours after injection of cancer cells, […]; in the combined treatment therefore the two drugs were injected after being mixed into the same syringe.
In experiment #4, wherein the control and DOX groups were the same as experiment #3, NAC was injected by i.v. route together with cancer cells, dissolved in the culture medium at a concentration of 10 mM. […]

[1] = experiment #1, DOX 5 mg/kg i.p. +24h, NAC 2 g/kg p.o. -3/+25 days, DOX+NAC same doses, killed at 25 days
[2] = experiment #1, combined same doses
[3] = experiment #2, DOX 10 mg/kg i.v. +3 days, NAC 1 g/kg i.p. -8 h/+8 days, DOX+NAC same doses, killed at 29 days
[4] = experiment #2, DOX 10 mg/kg i.v. +3 days, NAC 1 g/kg i.p. daily -8 h/+8 days, combined same doses
[5] = experiment #3, DOX 1 mg/kg i.v. +24 h, NAC 6.4 mg/kg i.v. +24 h, combined in the same injection
[6] = experiment #3, DOX 1 mg/kg i.v. +24 h, NAC 6,4 mg/kg i.v. +24 h, DOX+NAC mixed in the same syringe, killed at 27 days
[7] = experiment #4, DOX 1 mg/kg i.v. +24 h, NAC 10 mM in cancer cells culture medium, combined same doses
[8] = experiment #4, DOX 1 mg/kg i.v. +24 h, NAC 10 mM in culture medium of the injected cancer cells, DOX+NAC same doses, killed at 27 days
[9] = experiment #2, NAC 1 g/kg i.p. daily -8 h/+8 days

SMILES | Lung metastases No. (mean ± ES) [1] [No.] | Mice with metastases (No.) 0 [1] [No.] | Mice with metastases (No.) 1-10 [1] [No.] | Mice with metastases (No.) 11-50 [1] [No.] | Mice with metastases (No.) ≥51 [1] [No.] | reduction in the number of lung metastases with respect to untreated controls [2] [fold] | Lung metastases No. (mean ± ES) [3] [No.] | Mice with metastases (No.) 0 [3] [No.] | Mice with metastases (No.) 1-10 [3] [No.] | Mice with metastases (No.) 11-50 [3] [No.] | Mice with metastases (No.) ≥51 [3] [No.] | reduction in the number of lung metastases with respect to controls [4] [fold] | reduction in the number of lung metastases with respect to controls [5] [fold] | Lung metastases No. (mean ± ES) [6] [No.] | Mice with metastases (No.) 0 [6] [No.] | Mice with metastases (No.) 1-10 [6] [No.] | Mice with metastases (No.) 11-50 [6] [No.] | Mice with metastases (No.) ≥51 [6] [No.] | reduction in the number of lung metastases with respect to controls [7] [fold] | Lung metastases No. (mean ± ES) [8] [No.] | further results
COc1cccc2c1C(=O)c1c(O)c3c(c(O)c1C2=O)C[C@@](O)(C(=O)CO)C[C@@H]3O[C@H]1C[C@H](N)[C@H](O)[C@H](C)O1 [DOX, Doxorubicin] | 13.1 ± 11.6 | 2 | 4 | 5 | 0 | 4.1 | 0.7 ± 0.3 | 10 | 5 | 0 | 0 | 17.4 | 1.3 | 29.2 ± 13.7 | 3 | 5 | 0 | 3 | 1.3 | 29.2 ± 13.7 | frequency of mice affected by metastases (experiment #2, DOX 10 mg/kg i.v. +3 days, NAC 1 g/kg i.p. daily, controls 66.7%): 33.3%; Mice with metastases (No.) 0 [8]: 3 No.; Mice with metastases (No.) 1-10 [8]: 5 No.; Mice with metastases (No.) 11-50 [8]: 0 No.; Mice with metastases (No.) ≥51 [8]: 3 No.; modulating the induction of lung metastases (effect in words) (experiments #3 and #4, DOX 1 mg/kg i.v. +24 h): almost ineffective at all
CC(=O)N[C@@H](CS)C(=O)O [NAC, N-acetyl-cysteine] | 42.1 ± 15.8 | 0 | 3 | 7 | 2 | 1.3 | 25.1 ± 10.2 | 5 | 4 | 3 | 3 | 0.5 | 2.8 | 13.1 ± 8.9 | 5 | 2 | 3 | 1 | 14.7 | 2.5 ± 0.7 | frequency of animals with metastases (effect in words) [9]: did not affect; multiplicity of lung metastases (effect in words) [9]: even increased their multiplicity, but not to a significant extent; Mice with metastases (No.) 0 [8]: 4 No.; Mice with metastases (No.) 1-10 [8]: 7 No.; Mice with metastases (No.) 11-50 [8]: 0 No.; Mice with metastases (No.) ≥51 [8]: 0 No.
